Source: ChEMBL document CHEMBL3886711, “Substituted tetrahydrocarbazole and carbazole carboxamide compounds” (2016)
Values joined by “and” are separate entries in the source; they are usually repeats but may differ in a detail not shown here. Equal entries are not always repeated.

Target: Tyrosine-protein kinase JAK2 (Homo sapiens, UniProt O60674)
Test: Jak2 Tyrosine Kinase Assay: The assays were performed in V-bottom 384-well plates. The final assay volume was 30 μl prepared from 15 μl additions of enzyme and substrates (fluoresceinated peptide and ATP) and test compounds in assay buffer (100 mM HEPES pH 7.4, 10 mM MgCl2, 25 mM beta-glycerolphosphate, […] Brij 35 surfactant and 4 mM DTT). The reaction was initiated by the combination of Jak2

Sequence of Tyrosine-protein kinase JAK2 (O60674 whole entry): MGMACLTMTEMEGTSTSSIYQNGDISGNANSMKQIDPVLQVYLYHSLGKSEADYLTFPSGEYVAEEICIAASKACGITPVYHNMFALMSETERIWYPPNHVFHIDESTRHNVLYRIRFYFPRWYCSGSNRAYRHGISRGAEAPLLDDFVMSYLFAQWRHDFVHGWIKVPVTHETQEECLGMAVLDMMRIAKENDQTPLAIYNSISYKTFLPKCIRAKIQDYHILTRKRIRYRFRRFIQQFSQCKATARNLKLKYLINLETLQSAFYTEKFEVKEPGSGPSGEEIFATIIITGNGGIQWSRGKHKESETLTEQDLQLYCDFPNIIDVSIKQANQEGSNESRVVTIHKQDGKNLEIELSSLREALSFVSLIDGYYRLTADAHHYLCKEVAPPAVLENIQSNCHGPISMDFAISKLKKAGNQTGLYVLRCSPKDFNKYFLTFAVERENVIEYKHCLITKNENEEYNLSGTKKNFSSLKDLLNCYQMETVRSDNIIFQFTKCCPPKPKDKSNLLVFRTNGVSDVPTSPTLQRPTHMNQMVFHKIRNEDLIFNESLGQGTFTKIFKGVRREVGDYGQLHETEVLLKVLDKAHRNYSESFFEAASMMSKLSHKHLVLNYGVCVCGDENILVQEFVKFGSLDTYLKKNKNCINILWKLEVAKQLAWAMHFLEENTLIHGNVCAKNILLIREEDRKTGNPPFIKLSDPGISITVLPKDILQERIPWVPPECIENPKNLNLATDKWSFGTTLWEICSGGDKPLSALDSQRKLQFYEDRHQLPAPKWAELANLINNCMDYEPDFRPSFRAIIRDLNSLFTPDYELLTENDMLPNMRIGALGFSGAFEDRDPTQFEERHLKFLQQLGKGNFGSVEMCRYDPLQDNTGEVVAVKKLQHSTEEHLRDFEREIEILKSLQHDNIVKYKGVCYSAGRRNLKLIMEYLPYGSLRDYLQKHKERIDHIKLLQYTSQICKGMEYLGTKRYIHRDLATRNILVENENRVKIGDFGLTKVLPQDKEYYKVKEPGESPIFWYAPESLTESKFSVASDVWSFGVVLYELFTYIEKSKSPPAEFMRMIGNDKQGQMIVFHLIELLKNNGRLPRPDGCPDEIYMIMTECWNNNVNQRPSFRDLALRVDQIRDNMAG

| IC50 | Structure (SMILES) |
| --- | --- |
| 1.7 µM | Cc1c(-c2c(F)cc(C(N)=O)c3[nH]c4cc(C(C)(C)O)ccc4c23)cccc1-n1c(=O)[nH]c2c(F)cccc2c1=O |
| 1.4 µM and 0.97 µM | Cc1c(-c2c(Cl)cc(C(N)=O)c3[nH]c4cc(C(C)(C)O)ccc4c23)cccc1-n1c(=O)cc2c(Cl)cccn2c1=O |
